For 58 compounds, IC50 results are on record in patent US20260022114A1, “N-(5-SUBSTITUTED-[(1,3,4-THIADIAZOLYL) OR (1,3-THIAZOLYL)](SUBSTITUTED)CARBOXAMIDE COMPOUNDS, PHARMACEUTICAL COMPOSITIONS, AND METHODS OF PREPARING THE AMIDE COMPOUNDS AND OF THEIR USE” (Repare Therapeutics Inc., priority 2022, published 2026).

SMILES strings stand for the structures.

PolQ ATPase enzyme (1-894), sequence (O75417 1-894): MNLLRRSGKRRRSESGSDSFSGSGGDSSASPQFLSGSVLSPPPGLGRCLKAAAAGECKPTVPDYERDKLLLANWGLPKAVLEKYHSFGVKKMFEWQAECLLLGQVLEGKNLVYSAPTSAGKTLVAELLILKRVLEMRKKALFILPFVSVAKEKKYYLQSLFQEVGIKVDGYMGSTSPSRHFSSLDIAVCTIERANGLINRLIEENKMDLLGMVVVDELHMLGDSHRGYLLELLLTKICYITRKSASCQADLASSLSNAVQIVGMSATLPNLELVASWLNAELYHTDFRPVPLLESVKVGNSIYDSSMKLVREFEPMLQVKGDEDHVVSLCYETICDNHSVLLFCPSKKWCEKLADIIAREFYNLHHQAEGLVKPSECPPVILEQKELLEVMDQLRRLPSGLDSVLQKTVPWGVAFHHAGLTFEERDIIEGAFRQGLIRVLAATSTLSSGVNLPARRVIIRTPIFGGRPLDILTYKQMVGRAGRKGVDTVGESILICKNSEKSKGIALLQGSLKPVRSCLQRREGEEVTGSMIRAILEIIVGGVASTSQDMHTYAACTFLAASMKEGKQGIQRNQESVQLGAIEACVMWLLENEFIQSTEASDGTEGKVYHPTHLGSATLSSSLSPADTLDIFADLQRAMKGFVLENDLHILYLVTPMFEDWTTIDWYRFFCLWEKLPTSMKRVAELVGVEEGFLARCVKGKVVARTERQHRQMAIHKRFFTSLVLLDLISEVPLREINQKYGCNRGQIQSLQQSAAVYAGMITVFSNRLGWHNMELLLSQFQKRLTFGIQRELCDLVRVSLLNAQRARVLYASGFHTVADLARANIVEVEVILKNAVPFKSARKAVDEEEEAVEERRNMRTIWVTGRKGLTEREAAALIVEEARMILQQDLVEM

This test addresses PolQ ATPase enzyme (1-894) (Homo sapiens (Human), UniProt O75417). The test is described as follows: Polθ ATPase enzymatic assay (0.5 nM enzyme concentration), ADP-Glo. Conditions: 0.5 nM PolQ ATPase enzyme (1-894); average IC50. Format: biochemical. Here is the method: PolQ ATPase enzyme (1-894) at 0.5 nM is incubated with a 10-point concentration response of inhibitors for 15 min at rt in the following buffer: 50 mM Tris Cl pH 7.5, 10% glycerol, 5 mM DTT, 10 mM MgCl2, 0.1 mg/ml BSA. Following pre-incubation with inhibitors, DNA (Fork C) at 20 nM and ATP at 100 μM are added to start the reaction. Enzymatic reaction proceeds at rt for 180 min. ATP consumption is measured using the ADP-Glo assay from Promega. Luminescence is read on the Envision and IC50 are determined using the variable slope 4-parameters equation.
Oligos are annealed by heating at 95° C. for 5 min in the following buffer (10 mM Tris-HCl PH7.5, 50 mM NaCl, 1 mM EDTA) and cooled to rt. […]
For `COc1cnc(C(F)F)cc1-c1cc(-n2ccc(N)cc2=O)ncc1C(=O)Nc1nnc(C#CC2CC2)s1` [Compound 488], the IC50 (in general, the concentration that gives 50% inhibition) is under 0.25 nM. In the case of `COc1cc(C)ncc1-c1cc(-c2cc(C(F)F)ncc2OC)c(C(=O)Nc2nnc(C#CC3CC3)s2)cn1` [Compound 489], the IC50 is 0.4 nM. As to `COc1cnc(C(F)F)cc1-c1cc(-n2ccc(CO)cc2=O)ncc1C(=O)Nc1nnc(C#CC2CC2)s1` [Compound 490], the 50% inhibitory concentration (IC50) is under 0.25 nM. The value for `COc1cnc(C(F)F)cc1-c1cc(-n2cccc(C(C)=O)c2=O)ncc1C(=O)Nc1nnc(C#CC2CC2)s1` [Compound 491] was under 0.25 nM; that for `COc1cnc(C(F)F)cc1-c1cc(-n2ccc(C(N)=O)cc2=O)ncc1C(=O)Nc1nnc(C#CC2CC2)s1` [Compound 492] was under 0.25 nM. As for `COc1cnc(C(F)F)cc1-c1cc(-n2ccc(C#N)cc2=O)ncc1C(=O)Nc1nnc(C#CC2CC2)s1` [Compound 493], the figure is under 0.25 nM; as for `COc1cnc(C(F)F)cc1-c1cc(-n2cccc(C)c2=O)ncc1C(=O)Nc1nnc(C#CC2CCOCC2)s1` [Compound 494], under 0.25 nM. As for `COc1cnc(C(F)F)cc1-c1cc(-n2ccc(C(=O)O)cc2=O)ncc1C(=O)Nc1nnc(C#CC2CC2)s1` [Compound 495], the figure is 0.33 nM; as for `COC(=O)c1ccn(-c2cc(-c3cc(C(F)F)ncc3OC)c(C(=O)Nc3nnc(C#CC4CC4)s3)cn2)c(=O)c1` [Compound 496], under 0.25 nM; as for `COC(=O)C1CCN(c2cc(-c3cc(C(F)F)ncc3OC)c(C(=O)Nc3nnc(C#CC4CC4)s3)cn2)C(=O)C1` (stereo not shown) [Compound 497], 0.45 nM.

Regarding `COc1cnc(C(F)F)cc1-c1cc(-c2ccc(C)nc2OC)ncc1C(=O)Nc1nnc(C#CC2CC2)s1` [Compound 501], the midpoint of inhibition, the IC50, lay at 0.93 nM. This IC50 lies about 2.1-fold higher than the previous one. As for `COc1cnc(C(F)F)cc1-c1cc(N2C[C@@H](C)OCC2=O)ncc1C(=O)Nc1nnc(C#CC2CC2)s1` [Compound 502], the figure is 2.4 nM; as for `[2H]C([2H])([2H])N1CCN(c2cc(-c3cc(C(F)F)ncc3OC)c(C(=O)Nc3nnc(C#CC4CC4)s3)cn2)C(=O)C12CC2` [Compound 503], under 0.25 nM; as for `COC(=O)N1CCN(c2cc(-c3cc(C(F)F)ncc3OC)c(C(=O)Nc3nnc(C#CC4CC4)s3)cn2)C(=O)C12CC2` [Compound 505], under 0.25 nM.

Compound `COc1cnc(C(F)F)cc1-c1cc(-n2ccc(C3CCOCC3)cc2=O)ncc1C(=O)Nc1nnc(C#CC2CC2)s1` [Compound 506] yielded an IC50 of under 0.25 nM. The value for `COc1cnc(C(F)F)cc1-c1cc(Cn2ccccc2=O)ncc1C(=O)Nc1nnc(C#CC2CC2)s1` [Compound 507] was 1.5 nM.

Compound `COc1cnc(C(F)F)cc1-c1cc(N2CCN(CC#N)C3(CC3)C2=O)ncc1C(=O)Nc1nnc(C#CC2CC2)s1` [Compound 508] yielded an IC50 of 1.2 nM.

Turning to `COc1cnc(C(F)F)cc1-c1cc(-n2ccc(B(O)O)cc2=O)ncc1C(=O)Nc1nnc(C#CC2CC2)s1` [Compound 509], the IC50 is 1.7 nM. On to `COc1cnc(C(F)F)cc1-c1cc(N2CCN(C3CC3)C3(CC3)C2=O)ncc1C(=O)Nc1nnc(C#CC2CC2)s1` [Compound 510], for which the IC50 is 0.92 nM. As for `COc1cnc(C(F)F)cc1-c1cc(-c2ccc(C)cc2)ncc1C(=O)Nc1nnc(C#CC2CC2)s1` [Compound 513], the figure is 3.2 nM; as for `COc1cnc(C(F)F)cc1-c1cc(N2CCN(CC(F)(F)F)C3(CC3)C2=O)ncc1C(=O)Nc1nnc(C#CC2CC2)s1` [Compound 515], 2.7 nM; as for `COc1cnc(C(F)F)cc1-c1cc(N2CCN(C(=O)C(C)(C)C)C3(CC3)C2=O)ncc1C(=O)Nc1nnc(C#CC2CC2)s1` [Compound 516], 0.39 nM.

Regarding `C#Cc1nnc(NC(=O)c2cnc(-n3ccc(C)cc3=O)cc2-c2cc(C(F)F)ncc2OC)s1` [Compound 518], inhibition was half-maximal at 1.4 nM (IC50).

Consider `COc1cnc(C(F)F)cc1-c1cc(-c2ccn(C)c(=O)c2)ncc1C(=O)Nc1nnc(C#CC2CC2)s1` [Compound 519], for which the IC50 came to 12 nM.

With `COc1cnc(C(F)F)cc1-c1cc(N2CCN(C=O)C3(CC3)C2=O)ncc1C(=O)Nc1nnc(C#CC2CC2)s1` [Compound 520], the IC50 was 0.27 nM. For the compound `COc1cnc(C(F)F)cc1-c1cc(N2CCCCS2(=O)=O)ncc1C(=O)Nc1nnc(C#CC2CC2)s1` [Compound 521], 15 nM corresponded to half-maximal inhibition (IC50). `COc1cnc(C(F)F)cc1-c1cc(-n2ccc(N3CCOCC3)cc2=O)ncc1C(=O)Nc1nnc(C#CC2CC2)s1` [Compound 522] had an IC50 of under 0.25 nM. As for `COc1cnc(C(F)F)cc1-c1cc(-c2ccc(=O)n(C)c2)ncc1C(=O)Nc1nnc(C#CC2CC2)s1` [Compound 524], the figure is 2.3 nM; as for `COc1cncc(-c2cc(-c3cc(C(F)F)ncc3OC)c(C(=O)Nc3nnc(C#CC4CC4)s3)cn2)c1` [Compound 525], 1.3 nM; as for `COc1cnc(C(F)F)cc1-c1cc(Oc2cc(N3CCOCC3)ccn2)ncc1C(=O)Nc1nnc(C#CC2CC2)s1` [Compound 526], 1.5 nM.

`COc1cnc(C(F)F)cc1-c1cc(C#CC(C)(C)N2CCOCC2)ncc1C(=O)Nc1nnc(C#CC2CC2)s1` [Compound 528] yielded an IC50 of 0.44 nM.

In turn, `COc1cnc(C(F)F)cc1-c1cc(C#CCN2C[C@@H](C)O[C@@H](C)C2)ncc1C(=O)Nc1nnc(C#CC2CC2)s1` [Compound 529] gave an IC50 of 0.59 nM. As for `COc1cnc(C(F)F)cc1-c1cc(-n2ccncc2=O)ncc1C(=O)Nc1nnc(C#CC2CC2)s1` [Compound 531], the figure is 0.27 nM; as for `COc1cnc(C(F)F)cc1-c1cc(-n2ccc(C)cc2=O)ncc1C(=O)Nc1nnc(C2CC2)s1` [Compound 532], 1.7 nM. Turning to `COc1ncc(-c2cc(-c3cc(C(F)F)ncc3OC)c(C(=O)Nc3nnc(C#CC4CC4)s3)cn2)cn1` [Compound 533], it took 1.6 nM to reach half-maximal inhibition (IC50). This IC50 and that of the compound before are within 1.5-fold of each other. `COc1cnc(C(F)F)cc1-c1cc(-n2ccc(C)cc2=O)ncc1C(=O)Nc1nnc([C@H]2C[C@@H]2C(F)(F)F)s1` [Compound 534]: inhibition was half-maximal at 0.95 nM (IC50). As for `COc1cnc(C(F)F)cc1-c1cc(-n2ccc(N3CCN(C)CC3)cc2=O)ncc1C(=O)Nc1nnc(C#CC2CC2)s1` [Compound 535], the figure is 0.73 nM; as for `COc1cnc(C(F)F)cc1-c1cc(-n2ccc(C3CCN(C)CC3)cc2=O)ncc1C(=O)Nc1nnc(C#CC2CC2)s1` [Compound 536], 0.96 nM; as for `COc1cnc(C(F)F)cc1-c1cc(-n2ccc(N(C)C)cc2=O)ncc1C(=O)Nc1nnc(C#CC2CC2)s1` [Compound 537], 0.44 nM. As for `COc1ccc(-c2cc(-c3cc(C(F)F)ncc3OC)c(C(=O)Nc3nnc(C#CC4CC4)s3)cn2)c(OC)n1` [Compound 538], the figure is 5.7 nM; as for `COc1cnc(C(F)F)cc1-c1cc(C#CCN2CCN(C)CC2)ncc1C(=O)Nc1nnc(C#CC2CC2)s1` [Compound 540], 1 nM. Take `COc1cnc(C(F)F)cc1-c1cc(C#CCCN2CCOCC2)ncc1C(=O)Nc1nnc(C#CC2CC2)s1` [Compound 541]: 0.55 nM corresponded to half-maximal inhibition (IC50).

Compound `COc1cnc(C(F)F)cc1-c1cc(C#CCN2CCOCC2=O)ncc1C(=O)Nc1nnc(C#CC2CC2)s1` [Compound 542] displayed an IC50 of 0.29 nM.

Compound `COc1cnc(C(F)F)cc1-c1cc(C=C=CN2CCOCC2=O)ncc1C(=O)Nc1nnc(C#CC2CC2)s1` [Compound 543] gave an IC50 of 51 nM.

The compound `COc1cnc(C(F)F)cc1-c1cc(-n2ccc(C)cc2=O)ncc1C(=O)Nc1nnc([C@H]2C[C@@H]2F)s1` [Compound 544] showed an IC50 of 1.9 nM. For the compound `COc1cnc(C(F)F)cc1-c1cc(-n2ccc(C)cc2=O)ncc1C(=O)Nc1nnc([C@H]2C[C@@H]2C)s1` [Compound 545], the IC50 came to 1.1 nM. Compared with the last compound, the IC50 is about 1.7-fold lower.

As for `C#C[C@H]1C[C@@H]1c1nnc(NC(=O)c2cnc(-n3cc(C)ccc3=O)cc2-c2cc(C(F)F)ncc2OC)s1` [Compound 546], the IC50 was under 0.25 nM. With `C#C[C@H]1C[C@@H]1c1nnc(NC(=O)c2cnc(-n3cccc(C)c3=O)cc2-c2cc(C(F)F)ncc2OC)s1` [Compound 547], the IC50 was under 0.25 nM.

For `C#C[C@H]1C[C@@H]1c1nnc(NC(=O)c2cnc(-n3ccc(N4CCN(C)CC4)cc3=O)cc2-c2cc(C(F)F)ncc2OC)s1` [Compound 548], the IC50 was determined as 0.79 nM.

Compound `COc1cnc(C(F)F)cc1-c1cc(C#CC(C)(C)N2CCN(C)CC2)ncc1C(=O)Nc1nnc(C#CC2CC2)s1` [Compound 549] gave an IC50 of 1.5 nM. The value for `COc1cnc(C(F)F)cc1-c1cc(C#CCN2CCCC2=O)ncc1C(=O)Nc1nnc(C#CC2CC2)s1` [Compound 550] was under 0.25 nM. As for `COc1cnc(C(F)F)cc1-c1cc(-n2cc(C)ccc2=O)ncc1C(=O)Nc1nnc([C@H]2C[C@@H]2C(F)(F)F)s1` [Compound 551], the figure is 0.47 nM; as for `COc1cnc(C(F)F)cc1-c1cc(-n2cccc(C)c2=O)ncc1C(=O)Nc1nnc([C@H]2C[C@@H]2C(F)(F)F)s1` [Compound 552], 0.45 nM. As for `COc1cnc(C(F)F)cc1-c1cc(C#CC(C)(C)N2CCCCC2)ncc1C(=O)Nc1nnc(C#CC2CC2)s1` [Compound 553], the figure is 0.5 nM.

As to `COc1cnc(C(F)F)cc1-c1cc(C#CC2(N)CC2)ncc1C(=O)Nc1nnc(C#CC2CC2)s1` [Compound 554], the IC50 was under 0.25 nM.

In turn, `COc1cnc(C(F)F)cc1-c1cc(C#CC2CCN(C)CC2)ncc1C(=O)Nc1nnc(C#CC2CC2)s1` [Compound 555] registered an IC50 of 1 nM. For the compound `COc1cnc(C(F)F)cc1-c1cc(C#CCNCC(F)(F)F)ncc1C(=O)Nc1nnc(C#CC2CC2)s1` [Compound 558], the IC50 is under 0.25 nM. As for `COc1cnc(C(F)F)cc1-c1cc(C#CCN2CCNC2=O)ncc1C(=O)Nc1nnc(C#CC2CC2)s1` [Compound 559], the figure is under 0.25 nM.
